Measured values published in PubChem BioAssay AID330 (DTP/NCI, 2004).
Several values for one entry are separate records, joined by “and”; a condition that tells them apart may be missing. Identical values can stand only once. Inconclusive results and toxic doses are left out. Rule for the calls: active = survival T/C of 150% or more; inactive = T/C below 125% in these data. Square brackets hold non-standard residues; d marks the D form. Peptide text beside a SMILES is read from it. Nva = CCC[CH](N)C(=O)O

Test system: P388 leukemia ip, CD2F1 mice, survival T/C
Assay: NCI In Vivo Anticancer Drug Screen. Data for tumor model P388 Leukemia (intraperitoneal) in CD2F1 (CDF1) mice
Conditions: endpoint: median survival time, higher = longer survival
In short: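 Mice carrying the transplanted tumor received test compound or vehicle. Survival was recorded in each group, and the value is the treated-group measurement divided by that of the vehicle-treated control group.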

[1] = dose: 50.0 mg/kg/injection, schedule: Q01DX009 (ip), vehicle: Klucel (hydroxypropylcellulose) (HPC)
[2] = dose: 200.0 mg/kg/injection, schedule: Q01DX009 (ip), vehicle: Klucel (hydroxypropylcellulose) (HPC)
[3] = dose: 25.0 mg/kg/injection, schedule: Q01DX009 (ip), vehicle: saline with Tween-80
[4] = dose: 50.0 mg/kg/injection, schedule: Q01DX009 (ip), vehicle: saline with Tween-80
[5] = dose: 50.0 mg/kg/injection, schedule: Q01DX005 (ip), vehicle: Klucel (hydroxypropylcellulose) (HPC)
[6] = dose: 100.0 mg/kg/injection, schedule: Q01DX005 (ip), vehicle: Klucel (hydroxypropylcellulose) (HPC)
[7] = dose: 200.0 mg/kg/injection, schedule: Q01DX005 (ip), vehicle: Klucel (hydroxypropylcellulose) (HPC)
[8] = dose: 100.0 mg/kg/injection, schedule: Q01DX009 (ip), vehicle: saline with Tween-80
[9] = dose: 50.0 mg/kg/injection, schedule: Q01DX009 (ip), vehicle: saline
[10] = dose: 100.0 mg/kg/injection, schedule: Q01DX009 (ip), vehicle: saline
[11] = dose: 200.0 mg/kg/injection, schedule: Q01DX009 (ip), vehicle: saline
[12] = dose: 200.0 mg/kg/injection, schedule: Q01DX009 (ip), vehicle: saline with Tween-80
[13] = dose: 25.0 mg/kg/injection, schedule: Q01DX005 (ip), vehicle: saline

Measured: T/C

CCCCCNCC(=O)ON1CCCC1C(=O)NC(Cc1ccccc1)C(=O)NC(CC(C)C)C(=O)O (stereo not drawn)
inactive: dose: 100.0 mg/kg/injection, schedule: Q04DX002 (ip), vehicle: saline with Tween-80 104 % of control | dose: 200.0 mg/kg/injection, schedule: Q04DX002 (ip), vehicle: saline with Tween-80 101 % of control | dose: 400.0 mg/kg/injection, schedule: Q04DX002 (ip), vehicle: saline with Tween-80 101 % of control

Cc1nn(CCO)c(C)c1N=[N+]([O-])c1c(C)nn(CCO)c1C
inactive: dose: 10.0 mg/kg/injection, schedule: Q01DX009 (ip), vehicle: suspension in saline 114 % of control | dose: 20.0 mg/kg/injection, schedule: Q01DX009 (ip), vehicle: suspension in saline 120 % of control | dose: 25.0 mg/kg/injection, schedule: Q04DX003 (ip), vehicle: Klucel (hydroxypropylcellulose) (HPC) 111 % of control and 116 % of control | dose: 30.0 mg/kg/injection, schedule: Q01DX009 (ip), vehicle: suspension in saline 116 % of control | dose: 50.0 mg/kg/injection, schedule: Q04DX003 (ip), vehicle: Klucel (hydroxypropylcellulose) (HPC) 115 % of control and 122 % of control | dose: 60.0 mg/kg/injection, schedule: Q01DX009 (ip), vehicle: suspension in saline 120 % of control | dose: 100.0 mg/kg/injection, schedule: Q04DX003 (ip), vehicle: Klucel (hydroxypropylcellulose) (HPC) 114 % of control and 96 % of control

O=C(O)CCCSC(=S)c1ccccc1
inactive: dose: 12.5 mg/kg/injection, schedule: Q01DX009 (ip), vehicle: Klucel (hydroxypropylcellulose) (HPC) 102 % of control | dose: 25.0 mg/kg/injection, schedule: Q01DX009 (ip), vehicle: Klucel (hydroxypropylcellulose) (HPC) 100 % of control | [1] 98 % of control and 105 % of control | [2] 101 % of control

COC(=O)N1C(C)=Cc2ccccc2C1C#N (stereo not drawn)
inactive: dose: 50.0 mg/kg/injection, schedule: Q01DX009 (ip), vehicle: suspension in saline 100 % of control | dose: 100.0 mg/kg/injection, schedule: Q01DX009 (ip), vehicle: suspension in saline 98 % of control | dose: 200.0 mg/kg/injection, schedule: Q01DX009 (ip), vehicle: suspension in saline 95 % of control

CCOC1OCN(C(C)(C)C)CC1(C)C (stereo not drawn)
inactive: [3] 104 % of control | [4] 120 % of control

O=C(NC(Cc1ccccc1)C(=O)O)c1cccnc1 (stereo not drawn)
inactive: dose: 25.0 mg/kg/injection, schedule: Q04DX002 (ip), vehicle: Klucel (hydroxypropylcellulose) (HPC) 100 % of control | dose: 52.0 mg/kg/injection, schedule: Q04DX002 (ip), vehicle: Klucel (hydroxypropylcellulose) (HPC) 102 % of control | dose: 100.0 mg/kg/injection, schedule: Q04DX002 (ip), vehicle: Klucel (hydroxypropylcellulose) (HPC) 96 % of control | dose: 200.0 mg/kg/injection, schedule: Q04DX002 (ip), vehicle: Klucel (hydroxypropylcellulose) (HPC) 100 % of control

COc1cccc2c1C(=O)c1c(O)c(COC3CC(N)C(O)C(C)O3)cc(O)c1C2=O (stereo not drawn)
inactive: dose: 1.56 mg/kg/injection, schedule: Q04DX003 (ip), vehicle: water 96 % of control | dose: 3.13 mg/kg/injection, schedule: Q04DX003 (ip), vehicle: water 96 % of control | dose: 6.25 mg/kg/injection, schedule: Q04DX003 (ip), vehicle: water 104 % of control | dose: 12.5 mg/kg/injection, schedule: Q04DX003 (ip), vehicle: water 101 % of control | dose: 25.0 mg/kg/injection, schedule: Q04DX003 (ip), vehicle: water 95 % of control

COc1cc(C2c3cc(OC(C)=O)c(OC)cc3CC3C(=O)OCC32)ccc1OC(C)=O (stereo not drawn)
inactive: [5] 95 % of control | [6] 93 % of control | [7] 90 % of control

CC(N1CCOCC1)C(O)(c1ccccc1)c1ccccn1 (stereo not drawn)
inactive: dose: 50.0 mg/kg/injection, schedule: Q01DX005 (ip), vehicle: saline + alcohol 103 % of control | dose: 100.0 mg/kg/injection, schedule: Q01DX005 (ip), vehicle: saline + alcohol 115 % of control

CC(=O)c1ccc[n+](Cc2ccc([N+](=O)[O-])cc2)c1
inactive: [3] 95 % of control | [4] 100 % of control | [8] 90 % of control

COc1ccc(-n2cc(-c3ccc(Cl)cc3)c3c(N)ncnc32)cc1
inactive: dose: 60.0 mg/kg/injection, schedule: Q01DX005 (ip), vehicle: saline with Tween-80 105 % of control | dose: 120.0 mg/kg/injection, schedule: Q01DX005 (ip), vehicle: saline with Tween-80 94 % of control | dose: 240.0 mg/kg/injection, schedule: Q01DX005 (ip), vehicle: saline with Tween-80 86 % of control

Cc1ccc(N2C(=O)CSC2=S)cc1Cl
inactive: [9] 103 % of control | [10] 94 % of control | [11] 100 % of control

CCCC(N)C(=O)NC(C(=O)O)C(C)C (stereo not drawn) (H-[Nva]-Val-OH; configuration not given here)
inactive: [9] 100 % of control | [10] 103 % of control | [11] 100 % of control

O=C1C(=O)c2c(ccc3ccccc23)-c2ccccc21
inactive: [5] 100 % of control | [1] 104 % of control | [6] 97 % of control | dose: 100.0 mg/kg/injection, schedule: Q01DX009 (ip), vehicle: Klucel (hydroxypropylcellulose) (HPC) 100 % of control | [7] 104 % of control | [2] 86 % of control | dose: 400.0 mg/kg/injection, schedule: Q01DX009 (ip), vehicle: Klucel (hydroxypropylcellulose) (HPC) 94 % of control

CN1C(=O)C(=C/C=C/N(C)c2ccccc2)C(=O)N(C)C1=O
inactive: [4] 96 % of control | [8] 95 % of control | [12] 88 % of control

CC(=O)C1OC1c1ccccn1 (stereo not drawn)
inactive: [13] 102 % of control | dose: 25.0 mg/kg/injection, schedule: Q01DX005 (ip), vehicle: suspension in saline 103 % of control | dose: 50.0 mg/kg/injection, schedule: Q01DX005 (ip), vehicle: saline 102 % of control | dose: 50.0 mg/kg/injection, schedule: Q01DX005 (ip), vehicle: suspension in saline 100 % of control | dose: 100.0 mg/kg/injection, schedule: Q01DX005 (ip), vehicle: saline 104 % of control | dose: 100.0 mg/kg/injection, schedule: Q01DX005 (ip), vehicle: suspension in saline 110 % of control | dose: 200.0 mg/kg/injection, schedule: Q01DX005 (ip), vehicle: saline 102 % of control | dose: 200.0 mg/kg/injection, schedule: Q01DX005 (ip), vehicle: suspension in saline 100 % of control

O=C(/C=C/c1ccco1)C1C(=O)CCC1=O
inactive: dose: 50.0 mg/kg/injection, schedule: Q01DX005 (ip), vehicle: Klucel + Tween-80 98 % of control | dose: 100.0 mg/kg/injection, schedule: Q01DX005 (ip), vehicle: Klucel + Tween-80 104 % of control

N=c1ccn(O)cc1
inactive: dose: 6.25 mg/kg/injection, schedule: Q01DX005 (ip), vehicle: saline 101 % of control | dose: 12.5 mg/kg/injection, schedule: Q01DX005 (ip), vehicle: saline 107 % of control | dose: 12.5 mg/kg/injection, schedule: Q01DX009 (ip), vehicle: saline 111 % of control | [13] 102 % of control | dose: 25.0 mg/kg/injection, schedule: Q01DX009 (ip), vehicle: saline 111 % of control

CCCCCCCCCCCCOc1ccc(Br)cc1C(=O)O
inactive: [4] 100 % of control | [8] 112 % of control | [12] 105 % of control

O=C1C2=C(Nc3ccccc3N2)OC1c1ccccc1Cl (stereo not drawn)
inactive: dose: 60.0 mg/kg/injection, schedule: Q01DX005 (ip), vehicle: Klucel (hydroxypropylcellulose) (HPC) 97 % of control | dose: 120.0 mg/kg/injection, schedule: Q01DX005 (ip), vehicle: Klucel (hydroxypropylcellulose) (HPC) 97 % of control

O=C1OC2CSCC2O1 (stereo not drawn)
inactive: [9] 96 % of control | [10] 104 % of control | [11] 101 % of control
